The target of experiment [1] is smooth muscle angiotensin II receptor. Description: Assay A: Angiotensin II Binding Activity. Particulars: 50% displacement of specifically bound 125I-AII; rat uterine membranes; pH 7.5; 25° C., 60 min. On the procedure: Compounds of the invention were tested for ability to bind to the smooth muscle angiotensin II receptor using a rat uterine membrane preparation. […] Rat uterine membranes were prepared from fresh tissue. All procedures were carried out at 4° C. Uteri were stripped of fat and homogenized in phosphate-buffered saline at pH 7.4 containing 5 mM EDTA. The homogenate was centrifuged at 1500×g for 20 min., and the supernatant was recentrifuged at 100,000×g for 60 min. The pellet was resuspended in buffer consisting of 2 mM EDTA and 50 mM Tris-HCl (pH 7.5) to a final protein concentration of 4 mg/ml. […] The reaction was initiated by the addition of membrane protein and the mixture was incubated at 25° C. for 60 min. The incubation was terminated with ice-cold 50 mM Tris-HCl (pH 7.5) and the mixture was filtered to separate membrane-bound labelled peptide from the free ligand. The incubation tube and filter were washed with ice-cold buffer. Filters were assayed for radioactivity in a Micromedic gamma counter. Nonspecific binding was defined as binding in the presence of 10 μM of unlabelled AII. Specific binding was calculated as total binding minus nonspecific binding. […] Binding data were analyzed by a nonlinear least-squares curve fitting program.

A further experiment deals with T1, rabbit aortic rings (Oryctolagus cuniculus, UniProt P34976).
T1 construct: The thoracic aorta was removed, cleaned of adherent fat and connective tissue and then cut into 3-mm ring segments; from tissue; host or cells: rabbit thoracic aorta rings, endothelium removed
T1 sequence (P34976 1-359): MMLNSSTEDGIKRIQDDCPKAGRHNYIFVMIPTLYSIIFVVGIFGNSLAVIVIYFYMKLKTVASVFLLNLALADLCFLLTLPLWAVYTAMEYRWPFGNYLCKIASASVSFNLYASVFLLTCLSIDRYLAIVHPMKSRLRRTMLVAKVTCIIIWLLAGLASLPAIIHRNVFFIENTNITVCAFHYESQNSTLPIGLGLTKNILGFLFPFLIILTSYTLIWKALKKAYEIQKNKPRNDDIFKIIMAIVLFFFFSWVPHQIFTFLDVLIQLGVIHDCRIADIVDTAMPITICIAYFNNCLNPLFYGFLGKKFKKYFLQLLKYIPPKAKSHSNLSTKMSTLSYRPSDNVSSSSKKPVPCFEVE
Kind of experiment: Assay B: In Vitro Vascular Smooth Muscle Response for AII. Set-up: species or system rabbit (male New Zealand white). Particulars: rabbit aorta rings, two rabbits per antagonist, antagonist 10^-5 M, 5 minutes, AII contraction, Schild. On the procedure:
The compounds of the invention were tested for antagonist activity in rabbit aortic rings. Male New Zealand white rabbits (2-2.5 kg) were sacrificed using an overdose of pentobarbital and exsanguinated via the carotid arteries. The thoracic aorta was removed, cleaned of adherent fat and connective tissue and then cut into 3-mm ring segments. The endothelium was removed from the rings by gently sliding a rolled-up piece of filter paper into the vessel lumen. The rings were then mounted in a water-jacketed tissue bath, maintained at 37° C., between moveable and fixed ends of a stainless steel wire with the moveable end attached to an FT03 Grass transducer coupled to a Model 7D Grass Polygraph for recording isometric force responses. […] The preparations were equilibrated for one hour before approximately one gram of passive tension was placed on the rings. Angiotensin II concentration-response curves were then recorded (3×10^-10 to 1×10^-5 M). Each concentration of AII was allowed to elicit its maximal contraction, and then AII was washed out repeatedly for 30 minutes before rechallenging with a higher concentration of AII. Aorta rings were exposed to the test antagonist at 10^-5 M for 5 minutes before challenging with AII. Adjacent segments of the same aorta ring were used for all concentration-response curves in the presence or absence of the test antagonist. […] The pA2 value is the concentration of the antagonist which increases the EC50 value for AII by a factor of two. Each test antagonist was evaluated in aorta rings from two rabbits.

Setting [2] is: read-out: pA2 (first of two values) (converted).
The mark [3] stands for this setting: read-out: pA2 (second of two values) (converted).

Where two headings read alike, the source gives them in different places.

One may read the IC50 as the concentration that inhibits the measured activity by half. A lower IC50 goes with higher potency.

In experiment [1], “5-[2-[5-[[1-ethyl-3-(1,1-difluoroethyl)-1H-1,2,4-triazol-5-yl]methyl]-2-pyridinyl]phenyl]-1H-tetrazole [Example 15]” registered an IC50 of 1700 nM.

For the compound `CCCCn1nc(CCc2ccccc2)nc1Cc1ccc(-c2ccccc2-c2nnn[nH]2)nc1` [Example 2, 5-[2-[5-[[1-butyl-3-(2-phenylethyl)-1H-1,2,4-triazol-5-yl]methyl]-2-pyridinyl]phenyl]-1H-tetrazole], the Kb at rabbit aortic rings (setting [2]) was 17.4 nM; at rabbit aortic rings (setting [3]), 10.7 nM. In experiment [1], this compound returned an IC50 of 17 nM.

With `CCCCn1nc(/C=C/c2cccs2)nc1Cc1ccc(-c2ccccc2-c2nnn[nH]2)nc1` [Example 5, 5-[2-[5-[[1-butyl-3-[2-(2-thienyl)ethenyl]-1H-1,2,4-triazol-5-yl]methyl]-2-pyridinyl]phenyl]-1H-tetrazole], the Kb was 6.46 nM on rabbit aortic rings (setting [2]) and 4.17 nM at rabbit aortic rings (setting [3]). In experiment [1], this compound displayed an IC50 of 97 nM.

Regarding `CCCCCn1nc(CCCC)nc1Cc1ccc(-c2ccccc2-c2nnn[nH]2)nc1` [Example 6, 5-[2-[5-[(1-pentyl-3-butyl-1H-1,2,4-triazol-5-yl)methyl]-2-pyridinyl]phenyl]-1H-tetrazole], the Kb at rabbit aortic rings (setting [2]) was 25.1 nM; on rabbit aortic rings (setting [3]), 72.4 nM. This compound also displayed an IC50 in experiment [1] of 86 nM.

For the compound `CCCCCc1nc(Cc2ccc(-c3ccccc3-c3nnn[nH]3)nc2)n(CCCC)n1` [Example 7, 5-[2-[5-[(1-butyl-3-pentyl-1H-1,2,4-triazol-5-yl)methyl]-2-pyridinyl]phenyl]-1H-tetrazole], the Kb on rabbit aortic rings (setting [2]) is 9.33 nM; on rabbit aortic rings (setting [3]), 21.9 nM. In experiment [1], the IC50 was 78 nM.

For the compound `CCCCc1nc(Cc2ccc(-c3ccccc3-c3nnn[nH]3)nc2)n(CC(CC)CC)n1` [Example 8, 5-[2-[5-[[1-(2-ethylbutyl)-3-butyl-1H-1,2,4-triazol-5-yl]methyl]-2-pyridinyl]phenyl]-1H-tetrazole], the Kb on rabbit aortic rings (setting [3]) is 603 nM. The compound further had an IC50 in experiment [1] of 530 nM.

As to `CCCCn1nc(C(=O)CCC)nc1Cc1ccc(-c2ccccc2-c2nnn[nH]2)nc1` [Example 11, 5-[2-[5-[[1-butyl-3-(1-oxobutyl)-1H-1,2,4-triazol-5-yl]methyl]-2-pyridinyl]phenyl]-1H-tetrazole], the Kb is 13.5 nM on rabbit aortic rings (setting [2]) and 19.5 nM at rabbit aortic rings (setting [3]). In experiment [1], this compound displayed an IC50 of 64 nM.

In experiment [1], `CCCCn1nc(C(F)CCC)nc1Cc1ccc(-c2ccccc2-c2nnn[nH]2)nc1` (centres unmarked) [Example 12, 5-[2-[5-[[1-butyl-3-(1-fluorobutyl)-1H-1,2,4-triazol-5-yl]methyl]-2-pyridinyl]phenyl]-1H-tetrazole] displayed an IC50 of 28 nM.

As to `CCCn1nc(C(F)F)nc1Cc1ccc(-c2ccccc2-c2nnn[nH]2)nc1` [Example 13, 5-[2-[5-[(1-propyl-3-difluoromethyl-1H-1,2,4-triazol-5-yl)methyl]-2-pyridinyl]phenyl]-1H-tetrazole], the Kb at rabbit aortic rings (setting [2]) was 617 nM; on rabbit aortic rings (setting [3]) it was 282 nM. The compound also registered an IC50 in experiment [1] of 380 nM.

With `CCCCn1nc(C(F)F)nc1Cc1ccc(-c2ccccc2-c2nnn[nH]2)nc1` [Example 14, 5-[2-[5-[(1-butyl-3-difluoromethyl-1H-1,2,4-triazol-5-yl)methyl]-2-pyridinyl]phenyl]-1H-tetrazole], the Kb on rabbit aortic rings (setting [2]) was 38 nM; at rabbit aortic rings (setting [3]) it was 178 nM. The IC50 in experiment [1] is 420 nM.

As for `CCCn1nc(C(C)(F)F)nc1Cc1ccc(-c2ccccc2-c2nnn[nH]2)nc1` [Example 16, 5-[2-[5-[[1-propyl-3-(1,1-difluoroethyl)-1H-1,2,4-triazol-5-yl]methyl]-2-pyridinyl]phenyl]-1H-tetrazole], the values for the Kb on rabbit aortic rings (setting [2]) and at rabbit aortic rings (setting [3]) were 126 nM and 66.1 nM, respectively. The IC50 in experiment [1] stood at 410 nM.

Regarding `CCCCn1nc(C(C)(F)F)nc1Cc1ccc(-c2ccccc2-c2nnn[nH]2)nc1` [Example 17, 5-[2-[5-[[1-butyl-3-(1,1-difluoroethyl)-1H-1,2,4-triazol-5-yl]methyl]-2-pyridinyl]phenyl]-1H-tetrazole], the Kb on rabbit aortic rings (setting [2]) is 26.9 nM; on rabbit aortic rings (setting [3]) it was 18.2 nM. The compound also gave an IC50 in experiment [1] of 160 nM.

For the compound `CCCn1nc(C(F)(F)CC)nc1Cc1ccc(-c2ccccc2-c2nnn[nH]2)nc1` [Example 18, 5-[2-[5-[[1-propyl-3-(1,1-difluoropropyl)-1H-1,2,4-triazol-5-yl]methyl]-2-pyridinyl]phenyl]-1H-tetrazole], the Kb at rabbit aortic rings (setting [2]) was 83.2 nM; at rabbit aortic rings (setting [3]), 77.6 nM. For the same compound, the IC50 in experiment [1] turned out to be 370 nM.

As to `CCCCn1nc(C(F)(F)CC)nc1Cc1ccc(-c2ccccc2-c2nnn[nH]2)nc1` [Example 19, 5-[2-[5-[[1-butyl-3-(1,1-difluoropropyl)-1H-1,2,4-triazol-5-yl]methyl]-2-pyridinyl]phenyl]-1H-tetrazole], the Kb on rabbit aortic rings (setting [2]) is 20.4 nM; on rabbit aortic rings (setting [3]), 26.3 nM. In experiment [1], this compound gave an IC50 of 420 nM.

As to `CCCCn1nc(C(=O)NC)nc1Cc1ccc(-c2ccccc2-c2nnn[nH]2)nc1` [Example 23, 5-[2-[5-[[1-butyl-3-(N-methylamido)-1H-1,2,4-triazol-5-yl]methyl]-2-pyridinyl]phenyl]-1H-tetrazole], the figures for the Kb at rabbit aortic rings (setting [2]) and at rabbit aortic rings (setting [3]) were 70.8 nM and 91.2 nM, respectively. In experiment [1], this compound had an IC50 of 70 nM.

Regarding `CCCCn1nc(C(=O)NC(C)(C)C)nc1Cc1ccc(-c2ccccc2-c2nnn[nH]2)nc1` [Example 24, 5-[2-[5-[[1-butyl-3-(N-tertbutylamido)-1H-1,2,4-triazol-5-yl]methyl]-2-pyridinyl]phenyl]-1H-tetrazole], the figures for the Kb at rabbit aortic rings (setting [2]) and at rabbit aortic rings (setting [3]) were 32.4 nM and 120 nM, respectively. The compound further registered a concentration for half-maximal inhibition (IC50) in experiment [1] of 90 nM.

Consider `CCCn1nc(C(OC)OC)nc1Cc1ccc(-c2ccccc2-c2nnn[nH]2)nc1` [Example 25, 5-[2-[5-[[1-propyl-3-dimethoxymethyl-1H-1,2,4-triazol-5-yl]methyl]-2-pyridinyl]phenyl]-1H-tetrazole], for which the results for the Kb at rabbit aortic rings (setting [2]) and on rabbit aortic rings (setting [3]) were 51.3 nM and 95.5 nM, respectively. Besides, the IC50 in experiment [1] turned out to be 180 nM.

Consider `CCCCn1nc(C(OCCC)OCCC)nc1Cc1ccc(-c2ccccc2-c2nnn[nH]2)nc1` [Example 28, 5-[2-[5-[[1-butyl-3-dipropoxymethyl-1H-1,2,4-triazol-5-yl]methyl]-2-pyridinyl]phenyl]-1H-tetrazole], for which the Kb was 38.9 nM on rabbit aortic rings (setting [2]) and 14.1 nM on rabbit aortic rings (setting [3]). In experiment [1], this compound came in with an IC50 of 26 nM.

Consider `CCCCn1nc(C(OC(C)C)OC(C)C)nc1Cc1ccc(-c2ccccc2-c2nnn[nH]2)nc1` [Example 29, 5-[2-[5-[[1-butyl-3-diisopropoxymethyl-1H-1,2,4-triazol-5-yl]methyl]-2-pyridinyl]phenyl]-1H-tetrazole], for which the Kb was 28.8 nM at rabbit aortic rings (setting [2]) and 33.9 nM on rabbit aortic rings (setting [3]). The IC50 in experiment [1] came to 88 nM.

Turning to `CCCCn1nc(C=O)nc1Cc1ccc(-c2ccccc2-c2nnn[nH]2)nc1` [Example 30, 5-[2-[5-[[1-butyl-3-formyl-1H-1,2,4-triazol-5-yl]methyl]-2-pyridinyl]phenyl]-1H-tetrazole], the Kb on rabbit aortic rings (setting [2]) was 214 nM. Moreover, the IC50 in experiment [1] was 310 nM.

Regarding `CCCCn1nc(C(C)(OC)OC)nc1Cc1ccc(-c2ccccc2-c2nnn[nH]2)nc1` [Example 33, 5-[2-[5-[[1-butyl-3-(1,1-dimethoxyethyl)-1H-1,2,4-triazol-5-yl]methyl]-2-pyridinyl]phenyl]-1H-tetrazole], in experiment [1], the IC50 worked out at 59 nM. This counts as double-digit nanomolar.

In the case of `CCCCn1nc(C(C)=O)nc1Cc1ccc(-c2ccccc2-c2nnn[nH]2)nc1` [Example 34, 5-[2-[5-[[1-butyl-3-(1-oxoethyl)-1H-1,2,4-triazol-5-yl]methyl]-2-pyridinyl]phenyl]-1H-tetrazole], the IC50 in experiment [1] amounted to 390 nM.

The values are drawn from patent US6090828A, “5-aryleheteroarylalkyl-1,3,5-trisubstituted-1,2,4-triazole compounds for treatment of circulatory disorders” (priority 1997, dated 2000).
